Experimental data: PubChem BioAssay AID248 (DTP/NCI, 2004)
Inconclusive results and toxic doses are left out. No stated cut-off is given here; in the data, active means T/C of 150% or more; inactive means T/C below 125%.

System: L1210 leukemia ip in BDF1 mice, survival T/C
Assay: NCI In Vivo Anticancer Drug Screen. Data for tumor model L1210 Leukemia (intraperitoneal) in B6D2F1 (BDF1) mice
Conditions: endpoint: mean survival time, higher = longer survival
Outline: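 Antitumor effect is assessed in tumor-bearing animals. Survival in the compound arm is compared with a vehicle-dosed control arm and expressed as their quotient.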

[1] = dose: 100.0 mg/kg/injection, schedule: Q01DX001 (ip), vehicle: saline with Tween-80
[2] = dose: 100.0 mg/kg/injection, schedule: Q01DX001 (ip), vehicle: saline
[3] = dose: 200.0 mg/kg/injection, schedule: Q01DX001 (ip), vehicle: saline
[4] = dose: 400.0 mg/kg/injection, schedule: Q01DX001 (ip), vehicle: saline
[5] = dose: 100.0 mg/kg/injection, schedule: Q04DX003 (ip), vehicle: Klucel (hydroxypropylcellulose) (HPC)
[6] = dose: 200.0 mg/kg/injection, schedule: Q04DX003 (ip), vehicle: Klucel (hydroxypropylcellulose) (HPC)
[7] = dose: 400.0 mg/kg/injection, schedule: Q04DX003 (ip), vehicle: Klucel (hydroxypropylcellulose) (HPC)
[8] = dose: 6.25 mg/kg/injection, schedule: Q01DX009 (ip), vehicle: saline
[9] = dose: 12.5 mg/kg/injection, schedule: Q01DX009 (ip), vehicle: saline
[10] = dose: 25.0 mg/kg/injection, schedule: Q01DX009 (ip), vehicle: saline
[11] = dose: 100.0 mg/kg/injection, schedule: Q04DX003 (ip), vehicle: saline
[12] = dose: 200.0 mg/kg/injection, schedule: Q04DX003 (ip), vehicle: saline
[13] = dose: 25.0 mg/kg/injection, schedule: Q04DX003 (ip), vehicle: saline with Tween-80
[14] = dose: 50.0 mg/kg/injection, schedule: Q04DX003 (ip), vehicle: saline with Tween-80
[15] = dose: 50.0 mg/kg/injection, schedule: Q01DX009 (ip), vehicle: Klucel (hydroxypropylcellulose) (HPC)
[16] = dose: 100.0 mg/kg/injection, schedule: Q01DX009 (ip), vehicle: Klucel (hydroxypropylcellulose) (HPC)
[17] = dose: 200.0 mg/kg/injection, schedule: Q01DX009 (ip), vehicle: Klucel (hydroxypropylcellulose) (HPC)
[18] = dose: 50.0 mg/kg/injection, schedule: Q01DX009 (ip), vehicle: saline with Tween-80
[19] = dose: 100.0 mg/kg/injection, schedule: Q01DX009 (ip), vehicle: saline with Tween-80
[20] = dose: 200.0 mg/kg/injection, schedule: Q01DX009 (ip), vehicle: saline with Tween-80
[21] = dose: 400.0 mg/kg/injection, schedule: Q04DX003 (ip), vehicle: saline
[22] = dose: 100.0 mg/kg/injection, schedule: Q04DX003 (ip), vehicle: saline with Tween-80
[23] = dose: 200.0 mg/kg/injection, schedule: Q04DX003 (ip), vehicle: saline with Tween-80

Measured: T/C

O=c1[nH]nnc2c1nc(Cc1ccc([N+](=O)[O-])cc1)n2Cc1ccccc1
inactive: [1] 102 % of control | dose: 200.0 mg/kg/injection, schedule: Q01DX001 (ip), vehicle: saline with Tween-80 86 % of control | dose: 400.0 mg/kg/injection, schedule: Q01DX001 (ip), vehicle: saline with Tween-80 100 % of control

CC1CN(C=O)CCN1C=O (configuration not stated)
inactive: [2] 98 % of control | [3] 98 % of control | [4] 101 % of control

CC1(C)CCC(C)(C)c2c1ccc(O)c2Cc1c(O)ccc2c1C(C)(C)CCC2(C)C
inactive: [5] 96 % of control | [3] 87 % of control | [6] 96 % of control | [7] 94 % of control

Nc1ccc2ccccc2c1N=Nc1ccc(C(O)C(N)CO)cc1 (configuration not stated)
inactive: [8] 117 % of control | [9] 98 % of control | [10] 96 % of control

CN(C)C=NCCOCc1ccccc1
inactive: [11] 98 % of control | [12] 93 % of control

Cc1cccc(C(=O)OCc2ccccc2CN2CCCC2)c1
inactive: dose: 100.0 mg/kg/injection, schedule: Q04DX002 (ip), vehicle: saline 93 % of control | dose: 200.0 mg/kg/injection, schedule: Q04DX002 (ip), vehicle: saline 104 % of control

Cc1cc(C(C)(C)C)c(OC(=S)N(C)C)c(C(C)(C)C)c1
inactive: dose: 12.5 mg/kg/injection, schedule: Q04DX003 (ip), vehicle: saline with Tween-80 96 % of control | [13] 94 % of control | [14] 100 % of control

Cc1ccc(NC(=O)N(Cc2ccccc2)Cc2ccccc2)c([N+](=O)[O-])c1
inactive: [15] 87 % of control | [16] 123 % of control | [5] 95 % of control | [17] 90 % of control | [6] 101 % of control | [7] 99 % of control

CC(N)CNc1ccccc1 (configuration not stated)
inactive: dose: 12.5 mg/kg/injection, schedule: Q04DX003 (ip), vehicle: water 105 % of control | dose: 25.0 mg/kg/injection, schedule: Q04DX003 (ip), vehicle: water 98 % of control | dose: 50.0 mg/kg/injection, schedule: Q04DX003 (ip), vehicle: water 104 % of control

Cc1ccc(S(=O)(=O)N(CC(=O)O)c2ccccc2-c2ccccc2)cc1
inactive: [2] 100 % of control | [3] 89 % of control | [4] 100 % of control

O=C(N/N=C/c1cccc([N+](=O)[O-])c1)c1ccc(Cl)c(Cl)c1
inactive: [18] 93 % of control | [19] 93 % of control | [20] 90 % of control

Cc1ccc(Nc2nc(N)nc(N)c2N)c(C)c1
inactive: dose: 12.0 mg/kg/injection, schedule: Q01DX Z (ip), vehicle: saline 110 % of control

C(=C\c1nc2ccccc2[nH]1)/c1nc2ccccc2[nH]1
inactive: dose: 50.0 mg/kg/injection, schedule: Q01DX001 (ip), vehicle: saline 108 % of control | [2] 96 % of control | [3] 96 % of control | [4] 106 % of control

Cc1ccc(S(=O)(=O)N2CN3CN(C2)CN(S(=O)(=O)c2ccc(C)cc2)C3)cc1
inactive: [11] 95 % of control | [12] 86 % of control | [21] 95 % of control

CCN(CC)C(=O)OCCCN(C)C
inactive: [15] 96 % of control | [11] 105 % of control | [12] 105 % of control

CC[n+]1c(C)sc2cc(Cl)c(-c3ccccc3)cc21
inactive: [11] 98 % of control | [12] 101 % of control | [21] 95 % of control

CCOC(=O)C(OCc1ccccc1)(C(=O)O)C(C)C (configuration not stated)
inactive: [13] 93 % of control | [14] 97 % of control | [22] 98 % of control | [23] 103 % of control

CCn1c(C)[n+](CC)c2ccc(C(C)=O)cc21
inactive: [1] 97 % of control

Cc1cc(N(CCCl)CCCl)ccc1C=Nc1ccccc1-c1ccccc1
inactive: dose: 5.0 mg/kg/injection, schedule: Q01DX Z (ip), vehicle: carboxymethylcellulose (CMC) 110 % of control | dose: 10.0 mg/kg/injection, schedule: Q01DX Z (ip), vehicle: carboxymethylcellulose (CMC) 114 % of control | dose: 40.0 mg/kg/injection, schedule: Q01DX Z (ip), vehicle: carboxymethylcellulose (CMC) 109 % of control | dose: 80.0 mg/kg/injection, schedule: Q01DX Z (ip), vehicle: carboxymethylcellulose (CMC) 117 % of control

O=C1CCSc2c1ccc1ccccc21
inactive: [2] 87 % of control

ClC1(Cl)C2CCCOC21 (configuration not stated)
inactive: [16] 97 % of control | [17] 100 % of control | dose: 400.0 mg/kg/injection, schedule: Q01DX009 (ip), vehicle: Klucel (hydroxypropylcellulose) (HPC) 98 % of control

Cc1ccc(Nc2nc(N)nc(N)c2N)cc1C
inactive: dose: 25.0 mg/kg/injection, schedule: Q01DX Z (ip), vehicle: saline 93 % of control

O=C1C(c2ccccc2)=Nc2ccccc21
inactive: dose: 100.0 mg/kg/injection, schedule: Q04DX002 (ip), vehicle: saline with Tween-80 88 % of control | dose: 200.0 mg/kg/injection, schedule: Q04DX002 (ip), vehicle: saline with Tween-80 88 % of control | dose: 400.0 mg/kg/injection, schedule: Q04DX002 (ip), vehicle: saline with Tween-80 90 % of control

CC(C)c1ccccc1OS(=O)(=O)c1c(F)c(F)c(F)c(F)c1F
inactive: dose: 6.25 mg/kg/injection, schedule: Q01DX001 (ip), vehicle: Klucel (hydroxypropylcellulose) (HPC) 103 % of control | dose: 6.25 mg/kg/injection, schedule: Q01DX009 (ip), vehicle: saline with Tween-80 108 % of control | dose: 12.5 mg/kg/injection, schedule: Q01DX001 (ip), vehicle: Klucel (hydroxypropylcellulose) (HPC) 97 % of control | dose: 12.5 mg/kg/injection, schedule: Q01DX009 (ip), vehicle: saline with Tween-80 101 % of control | dose: 25.0 mg/kg/injection, schedule: Q01DX001 (ip), vehicle: Klucel (hydroxypropylcellulose) (HPC) 101 % of control | dose: 25.0 mg/kg/injection, schedule: Q01DX009 (ip), vehicle: saline with Tween-80 103 % of control

Cc1ccc(Cl)c(P(=O)(O)O)c1
inactive: [22] 97 % of control | [23] 106 % of control | dose: 400.0 mg/kg/injection, schedule: Q04DX003 (ip), vehicle: saline with Tween-80 104 % of control

NC(N)=N/N=C/c1cccc2ccccc12
inactive: dose: 3.8 mg/kg/injection, schedule: Q01DX Z (ip), vehicle: other 102 % of control | [8] 95 % of control | dose: 6.25 mg/kg/injection, schedule: Q04DX003 (ip), vehicle: Klucel (hydroxypropylcellulose) (HPC) 104 % of control | dose: 7.5 mg/kg/injection, schedule: Q01DX Z (ip), vehicle: other 97 % of control | [9] 98 % of control | dose: 12.5 mg/kg/injection, schedule: Q04DX003 (ip), vehicle: Klucel (hydroxypropylcellulose) (HPC) 100 % of control | dose: 15.0 mg/kg/injection, schedule: Q01DX Z (ip), vehicle: other 105 % of control | [10] 88 % of control | dose: 25.0 mg/kg/injection, schedule: Q04DX003 (ip), vehicle: Klucel (hydroxypropylcellulose) (HPC) 104 % of control | dose: 30.0 mg/kg/injection, schedule: Q01DX Z (ip), vehicle: other 94 % of control

[Cu+2].[NH-]C1C(Cl)CCC2C(Cl)CC[N-]C12 (configuration not stated)
inactive: dose: 6.0 mg/kg/injection, schedule: Q04DX003 (ip), vehicle: Klucel (hydroxypropylcellulose) (HPC) 91 % of control | dose: 12.0 mg/kg/injection, schedule: Q01DX001 (ip), vehicle: other 108 % of control | dose: 12.0 mg/kg/injection, schedule: Q04DX003 (ip), vehicle: Klucel (hydroxypropylcellulose) (HPC) 102 % of control | dose: 25.0 mg/kg/injection, schedule: Q01DX001 (ip), vehicle: other 108 % of control

O=C(NC1CCCC1O)c1ccccc1 (configuration not stated)
inactive: [18] 95 % of control | [19] 95 % of control | [20] 98 % of control
